For assay [1], the system named is MPTP-treated cynomolgus monkeys. The experiment in a line: object grasping test in MPTP-treated cynomolgus monkeys. The settings on record: GM1 15 mg/kg/day i.m., investigation end. It counts as in vivo. Here is the method:
The behaviour and neurologic functions of cynomolgus monkeys were also tested. Said monkeys were also trained to grasp an object, which has proven to be indicative of the motor and cognitive functions of MPTP-treated monkeys (Taylor J. R. et al., Brain, 113, 617, 1990).
The grasping test was carried out according to Diamond A.: “The development and neural bases of higher cognitive functions”, Annals of the New York Academy of Sciences, vol. 608, A. Diamond Ed. (The New York Academy of Sciences, New York, 637-676, 1990).
Briefly, monkeys were trained to stretch their arm out of their cage to grasp food (raisins or apple) from a Plexiglas box (15 cm×15 cm×5 cm), open on one side and fastened to a platform allowing side movement and rotation.
The box open side could happen to be in front of, on the left or on the right side of the monkey. Each experiment consisted of 30 tests. The following events were recorded: successful arm stretchings (food grasped at the first attempt), correct stretchings (food grasped after various attempts), and “barrier” stretchings (i.e. towards the closed side of the box rather than-around the box until reaching the open side of same). Should no food be grasped within 5 minutes, the test was judged to be without response.
FIG. 2 illustrates the effects produced by MPTP and GM1 on cynomolgus monkeys in the “object grasping” test. […]

The subject of assay [2] is MPTP-treated squirrel monkeys. The experiment in a line: motor behaviour rating of MPTP-treated squirrel monkeys. The assay is classed as in vivo. The protocol: In vivo experiments with GM1 were carried out on 15 (male or female) squirrel monkeys and 4 cynomolgus monkeys.
The monkeys were administered MPTP saline solution after being anaesthesized i.m. with ketamine HCl 5 mg/kg, as follows:
2 mg/kg/dose, i.m. (squirrel monkeys).
MPTP was administered every third day until complete manifestation of parkinsonian motor symptomatology was obtained, i.e. akinesia, lack of responsiveness to stimulation, inability to climb, to feed autonomously, and to groom. Thirty points min. (as will be defined in the explanation of FIG. 1) had to be obtained during the 48-60 hours following the last MPTP administration; then animals in pairs were subdivided at random into two treatment groups, i.e. treatment with GM1 or with saline solution. […]
In particular, the following functions were recorded: overall activity, ability to climb, locomotion/gait, upper and lower limb movements, detailed motor ability, bradykinesia/akinesia, dyskinesia/dystonia, carriage, tremor, balance, grooming ability, sudden immobility during movements, and ability to feed. […]
FIGS. 1 and 2 are now being considered in detail. […] Columns represent the average points (±S.D.); normal point is 0, MPTP points are the points recorded after the last MPTP injection but prior to the administration of associated GM1-saline solution. […]

Assay [3] has as its system MPTP-treated squirrel monkeys. Nature of the assay: post-mortem striatal dopamine and metabolite levels by HPLC, squirrel monkeys. It counts as in vivo. The settings on record: MPTP/GM1, average (S.D.). The protocol: Post-mortem neurochemical examinations of striatal tissue were carried out for the determination of dopamine (DA) and relevant metabolites, e.g. homovanillic acid (HVA), and […] (DOPAC). DA and relevant metabolites striatal levels were quantified by electrochemical […] high pressure liquid chromatography (HPLC) (Schneider J. S., Brain Res., 24, 534, 1990).

Assay [4] deals with mesencephalic dopaminergic neurons. Nature of the assay: TOPA neurotoxicity in mesencephalic dopaminergic neuron cultures, TH immunofluorescence. The assay is classed as cell-based, rat. Particulars: for TH+ cells (% control): counted 24 h later, mean ± S.E.M. The protocol:
Mesencephalic neuron cultures were prepared according to Dal Toso et al. (Dal Toso et al.: “Development and survival of neurons in dissociated fetal mesencephalic serum-free cell cultures: I. Effects of cell density and of an adult mammalian striatal-derived neuronotrophic factor (SDNF)”, J. Neurosci., 8 (3) 733-745, 1988) from the mesencephalic tegmentum of 14.5-15 days' rat embryos.
Neurons (0.75×10^6) were plated on a poly-L-ornithine substrate in 12-well (25 mm dia. each) clusters.
Cultures were used between the fourth and the sixth day without changing the medium. […]
2-hour pretreatment before acute incubation with TOPA;
cotreatment only with LIGA 20 before acute incubation with TOPA;
pretreatment with/without cotreatment before (100 μM for 2 h) and/or during (100 μM for 24 h) prolonged incubation with TOPA. TOPA cytotoxicity was determined by evaluating cellular survival, and more precisely:
TH immunofluorescence (specific for tyrosine hydroxylase) in mesencephalic dopaminergic neurons, as described by Berger et al. (Berger B. et al.: “Long-term development of mesencephalic dopaminergic neurons of mouse embryos in dissociated primary cultures: morphological and histochemical characteristics”, Neurosci., 7, 193-205, 1982);
Cytotoxicity is expressed as per cent cellular survival.
The results of the two tests (in triplicate) were analysed statistically according to Duncan's test.

Marks after values point to notes of the source that are not given here.

As to monosialoganglioside [GM1], the “object grasping test performance” value in assay [1] was “fulfilled the task almost perfectly”. Besides, the “motor behaviour at the investigation end” value in assay [2] (GM1 30 mg/kg/day i.m., p<0.01 vs saline solution) is listed as “almost normal behaviour”. Moreover, in assay [2] (GM1 chronic i.m. administration, end of 6-8 weeks' investigation, MPTP monkeys, species not separated (FIG. 1)), the recovered motor behaviour is recorded as 86-89%. Moreover, the DA striatal level in assay [3] (Dorsolateral caudatum) is listed as 8.6(1.2)* ng/mg protein; in assay [3] (Dorsolateral putamen) it was 4.2(0.8)* ng/mg protein; in assay [3] (Ventromedial caudatum) it was 37.4(4.2)* ng/mg protein; in assay [3] (Ventromedial putamen), 21.9(6.1)* ng/mg protein. Besides, the DOPAC striatal level is recorded as 3.3(0.9)* ng/mg protein in assay [3] (Dorsolateral caudatum), 1.3(0.2)* ng/mg protein in assay [3] (Dorsolateral putamen), 12.7(3.6)* ng/mg protein in assay [3] (Ventromedial caudatum) and 5.9(1.6)* ng/mg protein in assay [3] (Ventromedial putamen). For the same substance, the HVA striatal level in assay [3] (Dorsolateral caudatum) is 46.2(6.5)* ng/mg protein; in assay [3] (Dorsolateral putamen) it was 45.9(6.9)* ng/mg protein; in assay [3] (Ventromedial caudatum), 56.6(11.9)* ng/mg protein; in assay [3] (Ventromedial putamen), 87.5(17.3)* ng/mg protein. Moreover, in assay [4] (10 μM GM1 with 1 ng/ml BDNF, compared with saturation concentration (50 ng/ml) of BDNF alone), the “number of neurons which survived the TOPA-induced toxic insult” value is on record as “not significantly different”. The “No. of TH+ cells” value in assay [4] (100 μM compound incubated with TOPA 10 μM for 24 h, average ± S.D., control 244 ± 20) was 187 ± 10 (b). The “TH+ cells (% control)” value is 79.1 ± 4.0 % control in assay [4] (200 μM GM1 2 h pretreatment, washed, then 100 μM TOPA for 45 minutes) and 5.6 ± 0.7 % control in assay [4] (200 μM GM1 cotreatment with 100 μM TOPA for 45 minutes, no drug 5.2 ± 1.1). Further, in assay [4] (ganglioside 1-10 μM with BDNF 1 ng/ml), the “effect of association with BDNF in protecting against TOPA-induced neurotoxicity” value is reported as “synergic effect”. Moreover, the “neuroprotective activity alone against TOPA-induced neurotoxicity” value in assay [4] (ganglioside alone at 1-10 μM) is recorded as “no neuroprotective activity of their own”.
